In patent US11970493B2, “Autotaxin inhibitor compounds” (ILDONG PHARMACEUTICAL CO., LTD., priority 2020, dated 2024):
Where a name gives a salt, the structure may show the parent alone.

Biological target: hATX/ENPP2 (Homo sapiens, UniProt Q13822)
Assay: hATX/ENPP2 biochemical assay using 16:0-LPC as substrate (Amplex Red/choline oxidase/HRP fluorescence)
Conditions: hENPP2 2.5 nM, LPC (16:0) substrate
Method: The enzyme is diluted in 50 mM Tris-HCl pH 8.0, 140 mM NaCl, 5 mM CaCl2, 0.01% Triton X-100 in a total volume of 5 μL. The aqueous solution of enzyme is added to the wells and incubated with different concentrations of the compounds at room temperature for 15 min. The reaction is started by the addition of 5 μL of 80 μM LPC (16:0) and 10 μL of the detection mixture containing 200 μM Amplex Red, 10 U/mL choline oxidase and 4 U/mL HRP. Fluorescence at 590 nm was measured kinetically with excitation at 530 nm. The slope of the curve (from 60 to 70 min of the reaction time) was used to calculate the compounds' IC50 values.

**Q.** How did the IC50 turn out when CCc1nc2ccc(-c3cnc(C(=O)NC4CNC4)nc3)cn2c1N(C)c1nc(-c2ccc(F)cc2)c(C#N)s1 [Compound 50, N-(azetidin-3-yl)-5-(3-((5-cyano-4-(4-fluorophenyl)thiazol-2-yl) (methyl)amino)-2-ethylimidazo[1,2-a]pyridin-6-yl)pyrimidine-2-carboxamide] was run?
**A.** 0.02 to 0.2 µM

**Q.** With CCc1nc2ccc(-c3cnc(C(=O)NC4CCNCC4)nc3)cn2c1N(C)c1nc(-c2ccc(F)cc2)c(C#N)s1 [Compound 51, 5-(3-((5-cyano-4-(4-fluorophenyl)thiazol-2-yl) (methyl)amino)-2-ethylimidazo[1,2-a]pyridin-6-yl)-N-(piperidin-4-yl)pyrimidine-2-carboxamide] as the compound, how does the IC50 read?
**A.** 0.02 to 0.2 µM

**Q.** Which IC50 does the source give for CCc1nc2ccc(-c3cnc(CC(=O)N4CC(O)C4)nc3)cn2c1N(C)c1nc(-c2ccc(F)cc2)c(C#N)s1 [Compound 52, 2-((2-ethyl-6-(2-(2-(3-hydroxyazetidin-1-yl)-2-oxoethyl)pyrimidin-5-yl)imidazo[1,2-a]pyridin-3-yl)(methyl)amino)-4-(4-fluorophenyl)thiazole-5-carbonitrile] here?
**A.** 0.02 to 0.2 µM

**Q.** With CCc1nc2ccc(-c3cnc(CC(=O)N4CC(NC5CNC5)C4)nc3)cn2c1N(C)c1nc(-c2ccc(F)cc2)c(C#N)s1 [Compound 53, 2-((6-(2-(2-(3-(azetidin-3-ylamino)azetidin-1-yl)-2-oxoethyl)pyrimidin-5-yl)-2-ethylimidazo[1,2-a]pyridin-3-yl)(methyl)amino)-4-(4-fluorophenyl)thiazole-5-carbonitrile] as the compound, how does the IC50 read?
**A.** 0.02 to 0.2 µM

**Q.** How did the IC50 turn out when CCc1nc2ccc(-c3cnc(CC(=O)N4CC(NC)C4)nc3)cn2c1N(C)c1nc(-c2ccc(F)cc2)c(C#N)s1 [Compound 54, 2-((2-ethyl-6-(2-(2-(3-(methylamino)azetidin-1-yl)-2-oxoethyl)pyrimidin-5-yl)imidazo[1,2-a]pyridin-3-yl)(methyl)amino)-4-(4-fluorophenyl) thiazole-5-carbonitrile] was run?
**A.** 0.02 to 0.2 µM

**Q.** CCc1nc2ccc(-c3cnc(CC(=O)N4CC[C@H](O)C4)nc3)cn2c1N(C)c1nc(-c2ccc(F)cc2)c(C#N)s1 [Compound 55, (S)-2-((2-ethyl-6-(2-(2-(3-hydroxypyrrolidin-1-yl)-2-oxoethyl)pyrimidin-5-yl)imidazo[1,2-a]pyridin-3-yl)(methyl)amino)-4-(4-fluorophenyl)thiazole-5-carbonitrile] was tested. Which IC50 did it give?
**A.** 0.02 to 0.2 µM

**Q.** With CCc1nc2ccc(-c3cnc(CC(=O)N4CC[C@@H](O)C4)nc3)cn2c1N(C)c1nc(-c2ccc(F)cc2)c(C#N)s1 [Compound 56, (R)-2-((2-ethyl-6-(2-(2-(3-hydroxypyrrolidin-1-yl)-2-oxoethyl)pyrimidin-5-yl)imidazo[1,2-a]pyridin-3-yl)(methyl)amino)-4-(4-fluorophenyl)thiazole-5-carbonitrile] as the compound, how does the IC50 read?
**A.** 0.02 to 0.2 µM

**Q.** CCc1nc2ccc(-c3cnc(CC(=O)N4CCC(O)CC4)nc3)cn2c1N(C)c1nc(-c2ccc(F)cc2)c(C#N)s1 [Compound 57, 2-((2-ethyl-6-(2-(2-(4-hydroxypiperidin-1-yl)-2-oxoethyl)pyrimidin-5-yl)imidazo[1,2-a]pyridin-3-yl)(methyl)amino)-4-(4-fluorophenyl) thiazole-5-carbonitrile] was tested. Which IC50 did it give?
**A.** 0.02 to 0.2 µM

**Q.** CCc1nc2ccc(-c3cnc(CC(=O)N4CCNCC4)nc3)cn2c1N(C)c1nc(-c2ccc(F)cc2)c(C#N)s1 [Compound 58, 2-((2-ethyl-6-(2-(2-oxo-2-(piperazin-1-yl)ethyl)pyrimidin-5-yl)imidazo[1,2-a]pyridin-3-yl)(methyl)amino)-4-(4-fluorophenyl)thiazole-5-carbonitrile] was tested. Which IC50 did it give?
**A.** 0.02 to 0.2 µM

**Q.** For CCc1nc2ccc(-c3cnc(CC(=O)N4CCOCC4)nc3)cn2c1N(C)c1nc(-c2ccc(F)cc2)c(C#N)s1 [Compound 59, 2-((2-ethyl-6-(2-(2-morpholino-2-oxoethyl)pyrimidin-5-yl)imidazo[1,2-a]pyridin-3-yl)(methyl)amino)-4-(4-fluorophenyl)thiazole-5-carbonitrile], which IC50 is on record?
**A.** 0.02 to 0.2 µM

**Q.** With CCc1nc2ccc(-c3cnc(CC(N)=O)nc3)cn2c1N(C)c1nc(-c2ccc(F)cc2)c(C#N)s1 [Compound 60, 2-(5-(3-((5-cyano-4-(4-fluorophenyl)thiazol-2-yl)(methyl)amino)-2-ethylimidazo[1,2-a]pyridin-6-yl)pyrimidin-2-yl)acetamide] as the compound, how does the IC50 read?
**A.** 0.02 to 0.2 µM

**Q.** With CCc1nc2ccc(-c3cnc(CC(=O)NC)nc3)cn2c1N(C)c1nc(-c2ccc(F)cc2)c(C#N)s1 [Compound 61, 2-(5-(3-((5-cyano-4-(4-fluorophenyl)thiazol-2-yl)(methyl)amino)-2-ethylimidazo[1,2-a]pyridin-6-yl)pyrimidin-2-yl)-N-methyl acetamide] as the compound, how does the IC50 read?
**A.** 0.02 to 0.2 µM

**Q.** CCc1nc2ccc(-c3cnc(CC(=O)NC4CC4)nc3)cn2c1N(C)c1nc(-c2ccc(F)cc2)c(C#N)s1 [Compound 62, 2-(5-(3-((5-cyano-4-(4-fluorophenyl)thiazol-2-yl)(methyl)amino)-2-ethylimidazo[1,2-a]pyridin-6-yl)pyrimidin-2-yl)-N-cyclopropyl acetamide] was tested. Which IC50 did it give?
**A.** 0.02 to 0.2 µM

**Q.** How did the IC50 turn out when CCc1nc2ccc(-c3cnc(CC(=O)NC4CNC4)nc3)cn2c1N(C)c1nc(-c2ccc(F)cc2)c(C#N)s1 [Compound 63, N-(azetidin-3-yl)-2-(5-(3-((5-cyano-4-(4-fluorophenyl)thiazol-2-yl)(methyl)amino)-2-ethylimidazo[1,2-a]pyridin-6-yl)pyrimidin-2-yl)acetamide] was run?
**A.** > 0.2 µM

**Q.** Which IC50 does the source give for CCc1nc2ccc(-c3cnc(CC(=O)NC4(C#N)CC4)nc3)cn2c1N(C)c1nc(-c2ccc(F)cc2)c(C#N)s1 [Compound 64, 2-(5-(3-((5-cyano-4-(4-fluorophenyl)thiazol-2-yl)(methyl)amino)-2-ethylimidazo[1,2-a]pyridin-6-yl)pyrimidin-2-yl)-N-(1-cyanocyclopropyl)acetamide] here?
**A.** 0.02 to 0.2 µM

**Q.** For CCc1nc2ccc(-c3cnc(CC(=O)NC4CCNCC4)nc3)cn2c1N(C)c1nc(-c2ccc(F)cc2)c(C#N)s1 [Compound 65, 2-(5-(3-((5-cyano-4-(4-fluorophenyl)thiazol-2-yl)(methyl)amino)-2-ethylimidazo [1,2-a]pyridin-6-yl)pyrimidin-2-yl)-N-(piperidin-4-yl)acetamide], which IC50 is on record?
**A.** 0.02 to 0.2 µM

**Q.** CCc1nc2ccc(-c3cnc(N4CCN(C(=O)NC5CCNCC5)CC4)nc3)cn2c1N(C)c1nc(-c2ccc(F)cc2)c(C#N)s1 [Compound 67, 4-(5-(3-((5-cyano-4-(4-fluorophenyl)thiazol-2-yl)(methyl)amino)-2-ethylimidazo[1,2-a]pyridin-6-yl)pyrimidin-2-yl)-N-(piperidin-4-yl)piperazine-1-carboxamide] was tested. Which IC50 did it give?
**A.** 0.02 to 0.2 µM

**Q.** Which IC50 does the source give for CCc1nc2ccc(-c3cnc(N4CCC(NC5CNC5)CC4)nc3)cn2c1N(C)c1nc(-c2ccc(F)cc2)c(C#N)s1 [Compound 68 formate, 2-((6-(2-(4-(azetidin-3-ylamino)piperidin-1-yl)pyrimidin-5-yl)-2-ethylimidazo[1,2-a]pyridin-3-yl)(methyl)amino)-4-(4-fluorophenyl)thiazole-5-carbonitrile formate] here?
**A.** ≤ 0.02 µM

**Q.** Which IC50 does the source give for CCc1nc2ccc(-c3cnc(N4CCC(NC5CCNCC5)CC4)nc3)cn2c1N(C)c1nc(-c2ccc(F)cc2)c(C#N)s1 [Compound 69 formate, 2-((2-ethyl-6-(2-(4-(piperidin-4-ylamino)piperidin-1-yl)pyrimidin-5-yl)imidazo[1,2-a]pyridin-3-yl)(methyl)amino)-4-(4-fluorophenyl) thiazole-5-carbonitrile formate] here?
**A.** ≤ 0.02 µM

**Q.** For CCc1nc2ccc(-c3cnc(N4CCC(C(=O)NC5CNC5)CC4)nc3)cn2c1N(C)c1nc(-c2ccc(F)cc2)c(C#N)s1 [Compound 72 hydrochloride, N-(azetidin-3-yl)-1-(5-(3-((5-cyano-4-(4-fluorophenyl)thiazol-2-yl)(methyl)amino)-2-ethylimidazo[1,2-a]pyridin-6-yl)pyrimidin-2-yl)piperidine-4-carboxamide hydrochloride], which IC50 is on record?
**A.** ≤ 0.02 µM

**Q.** Which IC50 does the source give for CCc1nc2ccc(-c3cnc(N4CCC(C(=O)NC5CCNCC5)CC4)nc3)cn2c1N(C)c1nc(-c2ccc(F)cc2)c(C#N)s1 [Compound 73, 1-(5-(3-((5-cyano-4-(4-fluorophenyl)thiazol-2-yl)(methyl)amino)-2-ethylimidazo[1,2-a]pyridin-6-yl)pyrimidin-2-yl)-N-(piperidin-4-yl)piperidine-4-carboxamide] here?
**A.** ≤ 0.02 µM

**Q.** With CCc1nc2ccc(-c3cnc(N4CCC(NC(=O)[C@H]5C[C@H](O)CN5)CC4)nc3)cn2c1N(C)c1nc(-c2ccc(F)cc2)c(C#N)s1 [Compound 74, (2R,4S)—N-(1-(5-(3-((5-cyano-4-(4-fluorophenyl)thiazol-2-yl)(methyl)amino)-2-ethylimidazo[1,2-a]pyridin-6-yl)pyrimidin-2-yl)piperidin-4-yl)-4-hydroxypyrrolidine-2-carboxamide] as the compound, how does the IC50 read?
**A.** ≤ 0.02 µM

**Q.** CCc1nc2ccc(-c3cnc(N4CCC(NC(=O)[C@@H]5C[C@H](O)CN5)CC4)nc3)cn2c1N(C)c1nc(-c2ccc(F)cc2)c(C#N)s1 [Compound 75, (2S,4S)—N-(1-(5-(3-((5-cyano-4-(4-fluorophenyl)thiazol-2-yl)(methyl)amino)-2-ethylimidazo[1,2-a]pyridin-6-yl)pyrimidin-2-yl)piperidin-4-yl)-4-hydroxypyrrolidine-2-carboxamide] was tested. Which IC50 did it give?
**A.** ≤ 0.02 µM

**Q.** How did the IC50 turn out when CCc1nc2ccc(-c3cnc(N4CCC(NC(=O)[C@H]5C[C@@H](O)CN5)CC4)nc3)cn2c1N(C)c1nc(-c2ccc(F)cc2)c(C#N)s1 [Compound 76, (2R,4R)—N-(1-(5-(3-((5-cyano-4-(4-fluorophenyl)thiazol-2-yl)(methyl)amino)-2-ethylimidazo[1,2-a]pyridin-6-yl)pyrimidin-2-vl)piperidin-4-yl)-4-hydroxypyrrolidine-2-carboxamide] was run?
**A.** ≤ 0.02 µM
